Data from patent publication US12618095B2, “Medium for Bacillus cereus group detection” (SHIMADZU DIAGNOSTICS CORPORATION, priority 2020, dated 2026).

Legend:
Experiment in all cases: Test Example 10: agar medium with aztreonam or ceftazidime
E. coli = type: cell-based; conditions: 22 hours; for Number of colonies: ATCC8739
B. cereus = conditions: 22 hours
E. amnigenus = conditions: 22 hours; for Number of colonies: ATCC33072
B. thuringiensis = conditions: NBRC101235, 22 hours

C[C@H]1[C@H](NC(=O)/C(=N\OC(C)(C)C(=O)O)c2csc(N)n2)C(=O)N1S(=O)(=O)O [aztreonam]
Number of colonies (E. coli; Aztreonam 0.05 mg, 10^1 cfu/mL): − | Number of colonies (E. coli; Aztreonam 0.05 mg, 10^2 cfu/mL): − | Number of colonies (E. coli; Aztreonam 0.05 mg, 10^3 cfu/mL): − | Number of colonies (E. coli; Aztreonam 0.05 mg, 10^4 cfu/mL): − | Number of colonies (E. coli; Aztreonam 0.05 mg, 10^5 cfu/mL): − | Number of colonies (E. coli; Aztreonam 0.5 mg, 10^1 cfu/mL): − | Number of colonies (E. coli; Aztreonam 0.5 mg, 10^2 cfu/mL): − | Number of colonies (E. coli; Aztreonam 0.5 mg, 10^3 cfu/mL): − | Number of colonies (E. coli; Aztreonam 0.5 mg, 10^4 cfu/mL): − | Number of colonies (E. coli; Aztreonam 0.5 mg, 10^5 cfu/mL): − | Number of colonies (E. coli; Aztreonam 5 mg, 10^1 cfu/mL): − | Number of colonies (E. coli; Aztreonam 5 mg, 10^2 cfu/mL): − | Number of colonies (E. coli; Aztreonam 5 mg, 10^3 cfu/mL): − | Number of colonies (E. coli; Aztreonam 5 mg, 10^4 cfu/mL): − | Number of colonies (E. coli; Aztreonam 5 mg, 10^5 cfu/mL): − | formation of a white colony (E. coli; added to TSA-BC, 30° C.): suppressed | Number of colonies (B. cereus; ATCC11778, Aztreonam 0.05 mg, 10^1 cfu/mL): 1 | Number of colonies (B. cereus; ATCC11778, Aztreonam 0.05 mg, 10^2 cfu/mL): 13 | Number of colonies (B. cereus; ATCC11778, Aztreonam 0.05 mg, 10^3 cfu/mL): + | Number of colonies (B. cereus; ATCC11778, Aztreonam 0.05 mg, 10^4 cfu/mL): + | Number of colonies (B. cereus; ATCC11778, Aztreonam 0.05 mg, 10^5 cfu/mL): + | Number of colonies (B. cereus; ATCC11778, Aztreonam 0.5 mg, 10^1 cfu/mL): 1 | Number of colonies (B. cereus; ATCC11778, Aztreonam 0.5 mg, 10^2 cfu/mL): 12 | Number of colonies (B. cereus; ATCC11778, Aztreonam 0.5 mg, 10^3 cfu/mL): + | Number of colonies (B. cereus; ATCC11778, Aztreonam 0.5 mg, 10^4 cfu/mL): + | Number of colonies (B. cereus; ATCC11778, Aztreonam 0.5 mg, 10^5 cfu/mL): + | Number of colonies (B. cereus; ATCC11778, Aztreonam 5 mg, 10^1 cfu/mL): 2 | Number of colonies (B. cereus; ATCC11778, Aztreonam 5 mg, 10^2 cfu/mL): 17 | Number of colonies (B. cereus; ATCC11778, Aztreonam 5 mg, 10^3 cfu/mL): + | Number of colonies (B. cereus; ATCC11778, Aztreonam 5 mg, 10^4 cfu/mL): + | Number of colonies (B. cereus; ATCC11778, Aztreonam 5 mg, 10^5 cfu/mL): + | Number of colonies (B. cereus; ATCC19637, Aztreonam 0.05 mg, 10^1 cfu/mL): 3 | Number of colonies (B. cereus; ATCC19637, Aztreonam 0.05 mg, 10^2 cfu/mL): 2 | Number of colonies (B. cereus; ATCC19637, Aztreonam 0.05 mg, 10^3 cfu/mL): + | Number of colonies (B. cereus; ATCC19637, Aztreonam 0.05 mg, 10^4 cfu/mL): + | Number of colonies (B. cereus; ATCC19637, Aztreonam 0.05 mg, 10^5 cfu/mL): + | Number of colonies (B. cereus; ATCC19637, Aztreonam 0.5 mg, 10^1 cfu/mL): 1 | Number of colonies (B. cereus; ATCC19637, Aztreonam 0.5 mg, 10^2 cfu/mL): 10 | Number of colonies (B. cereus; ATCC19637, Aztreonam 0.5 mg, 10^3 cfu/mL): + | Number of colonies (B. cereus; ATCC19637, Aztreonam 0.5 mg, 10^4 cfu/mL): + | Number of colonies (B. cereus; ATCC19637, Aztreonam 0.5 mg, 10^5 cfu/mL): + | Number of colonies (B. cereus; ATCC19637, Aztreonam 5 mg, 10^1 cfu/mL): 1 | Number of colonies (B. cereus; ATCC19637, Aztreonam 5 mg, 10^2 cfu/mL): 5 | Number of colonies (B. cereus; ATCC19637, Aztreonam 5 mg, 10^3 cfu/mL): + | Number of colonies (B. cereus; ATCC19637, Aztreonam 5 mg, 10^4 cfu/mL): + | Number of colonies (B. cereus; ATCC19637, Aztreonam 5 mg, 10^5 cfu/mL): + | Number of colonies (E. amnigenus; Aztreonam 0.05 mg, 10^1 cfu/mL): − | Number of colonies (E. amnigenus; Aztreonam 0.05 mg, 10^2 cfu/mL): − | Number of colonies (E. amnigenus; Aztreonam 0.05 mg, 10^3 cfu/mL): − | Number of colonies (E. amnigenus; Aztreonam 0.05 mg, 10^4 cfu/mL): − | Number of colonies (E. amnigenus; Aztreonam 0.05 mg, 10^5 cfu/mL): 2 | Number of colonies (E. amnigenus; Aztreonam 0.5 mg, 10^1 cfu/mL): − | Number of colonies (E. amnigenus; Aztreonam 0.5 mg, 10^2 cfu/mL): − | Number of colonies (E. amnigenus; Aztreonam 0.5 mg, 10^3 cfu/mL): − | Number of colonies (E. amnigenus; Aztreonam 0.5 mg, 10^4 cfu/mL): − | Number of colonies (E. amnigenus; Aztreonam 0.5 mg, 10^5 cfu/mL): − | Number of colonies (E. amnigenus; Aztreonam 5 mg, 10^1 cfu/mL): − | Number of colonies (E. amnigenus; Aztreonam 5 mg, 10^2 cfu/mL): − | Number of colonies (E. amnigenus; Aztreonam 5 mg, 10^3 cfu/mL): − | Number of colonies (E. amnigenus; Aztreonam 5 mg, 10^4 cfu/mL): − | Number of colonies (E. amnigenus; Aztreonam 5 mg, 10^5 cfu/mL): − | formation of a white colony (E. amnigenus; added to TSA-BC, 30° C.): suppressed | Number of colonies (B. thuringiensis; Aztreonam 0.05 mg, 10^1 cfu/mL): 3 | Number of colonies (B. thuringiensis; Aztreonam 0.05 mg, 10^2 cfu/mL): 16 | Number of colonies (B. thuringiensis; Aztreonam 0.05 mg, 10^3 cfu/mL): + | Number of colonies (B. thuringiensis; Aztreonam 0.05 mg, 10^4 cfu/mL): + | Number of colonies (B. thuringiensis; Aztreonam 0.05 mg, 10^5 cfu/mL): + | Number of colonies (B. thuringiensis; Aztreonam 0.5 mg, 10^1 cfu/mL): 1 | Number of colonies (B. thuringiensis; Aztreonam 0.5 mg, 10^2 cfu/mL): 13 | Number of colonies (B. thuringiensis; Aztreonam 0.5 mg, 10^3 cfu/mL): + | Number of colonies (B. thuringiensis; Aztreonam 0.5 mg, 10^4 cfu/mL): + | Number of colonies (B. thuringiensis; Aztreonam 0.5 mg, 10^5 cfu/mL): + | Number of colonies (B. thuringiensis; Aztreonam 5 mg, 10^1 cfu/mL): 2 | Number of colonies (B. thuringiensis; Aztreonam 5 mg, 10^2 cfu/mL): 16 | Number of colonies (B. thuringiensis; Aztreonam 5 mg, 10^3 cfu/mL): + | Number of colonies (B. thuringiensis; Aztreonam 5 mg, 10^4 cfu/mL): + | Number of colonies (B. thuringiensis; Aztreonam 5 mg, 10^5 cfu/mL): +
